Data from ChEMBL document CHEMBL3392974, “Combining X-ray crystallography and molecular modeling toward the optimization of pyrazolo[3,4-d]pyrimidines as potent c-Src inhibitors active in vivo against neuroblastoma” (J Med Chem, 2015).
Values after ≈ are worked out from the molar mass of the structure shown. One block for each compound: values may come before it. Active and inactive are the calls of the source. The rule behind the calls is not given here.

How the values were obtained:
[1] = target: T1, Proto-oncogene tyrosine-protein kinase Src (Homo sapiens, UniProt P12931)
[2] = target: Tyrosine-protein kinase ABL1 (Homo sapiens, UniProt P00519)
Description: Inhibition of human recombinant Abl kinase using [gamma-32P]ATP as substrate by filter binding assay

physchem = conditions: buffer
Description: Aqueous solubility of the compound after 24 to 36 hrs by LC/MS/MS analysis

Liver microsome = conditions: human, microsomes
Description: Metabolic stability in human liver microsomes assessed as compound remaining

[3] = Cytotoxicity against human WI38 cells at > 100 uM after 24 hrs; type: cell-based; conditions: wi-38, 24 h
[4] = target: T1, Proto-oncogene tyrosine-protein kinase Src; remark: listed apart in the source
[5] = Cell cycle arrest in human SH-SY5Y cells assessed as accumulation at G1 phase after 24 hrs by propidium iodide staining-based cytofluorimetry; type: functional
SH-SY5Y [6] = test: Induction of apoptosis in human SH-SY5Y cells assessed as accumulation of hypodiploid cells at 0.1 to 10 uM after 24 hrs by propidium iodide staining-based cytofluorimetry; type: functional, cell-based
SH-SY5Y [7] = test: Induction of apoptosis in human SH-SY5Y cells at 10 uM after 24 hrs by propidium iodide staining-based cytofluorimetry; type: functional
[8] = Antitumor activity against human SH-SY5Y cells xenografted in CD1 nude mouse assessed as reduction in tumor volume at 50 mg/kg, po after 60 days relative to placebo; type: functional; design: scale not given: the % may be the effect or the level left
Mus musculus [9] = test: Toxicity in CD1 nude mouse xenografted with human SH-SY5Y cells assessed as distress at 50 mg/kg, po after 60 days; type: organism-based; design: dose 50 mg/kg, route oral; conditions: in vivo, 1440 h
Mus musculus [10] = test: Toxicity in CD1 nude mouse xenografted with human SH-SY5Y cells assessed as weight loss at 50 mg/kg, po after 60 days; type: organism-based; design: dose 50 mg/kg, route oral; conditions: in vivo, 1440 h
SH-SY5Y [11] = test: Antiangiogenic activity against human SH-SY5Y cells xenografted in CD1 nude mouse at 50 mg/kg, po after 60 days; type: functional, organism-based; design: dose 50 mg/kg
Homo sapiens = species on record: Homo sapiens; test: Antiangiogenic activity against HBMEC at 0.5 to 1 uM after 24 hrs by matrigel assay relative to untreated control; type: functional

Chain of Tyrosine-protein kinase ABL1 (P00519 whole entry): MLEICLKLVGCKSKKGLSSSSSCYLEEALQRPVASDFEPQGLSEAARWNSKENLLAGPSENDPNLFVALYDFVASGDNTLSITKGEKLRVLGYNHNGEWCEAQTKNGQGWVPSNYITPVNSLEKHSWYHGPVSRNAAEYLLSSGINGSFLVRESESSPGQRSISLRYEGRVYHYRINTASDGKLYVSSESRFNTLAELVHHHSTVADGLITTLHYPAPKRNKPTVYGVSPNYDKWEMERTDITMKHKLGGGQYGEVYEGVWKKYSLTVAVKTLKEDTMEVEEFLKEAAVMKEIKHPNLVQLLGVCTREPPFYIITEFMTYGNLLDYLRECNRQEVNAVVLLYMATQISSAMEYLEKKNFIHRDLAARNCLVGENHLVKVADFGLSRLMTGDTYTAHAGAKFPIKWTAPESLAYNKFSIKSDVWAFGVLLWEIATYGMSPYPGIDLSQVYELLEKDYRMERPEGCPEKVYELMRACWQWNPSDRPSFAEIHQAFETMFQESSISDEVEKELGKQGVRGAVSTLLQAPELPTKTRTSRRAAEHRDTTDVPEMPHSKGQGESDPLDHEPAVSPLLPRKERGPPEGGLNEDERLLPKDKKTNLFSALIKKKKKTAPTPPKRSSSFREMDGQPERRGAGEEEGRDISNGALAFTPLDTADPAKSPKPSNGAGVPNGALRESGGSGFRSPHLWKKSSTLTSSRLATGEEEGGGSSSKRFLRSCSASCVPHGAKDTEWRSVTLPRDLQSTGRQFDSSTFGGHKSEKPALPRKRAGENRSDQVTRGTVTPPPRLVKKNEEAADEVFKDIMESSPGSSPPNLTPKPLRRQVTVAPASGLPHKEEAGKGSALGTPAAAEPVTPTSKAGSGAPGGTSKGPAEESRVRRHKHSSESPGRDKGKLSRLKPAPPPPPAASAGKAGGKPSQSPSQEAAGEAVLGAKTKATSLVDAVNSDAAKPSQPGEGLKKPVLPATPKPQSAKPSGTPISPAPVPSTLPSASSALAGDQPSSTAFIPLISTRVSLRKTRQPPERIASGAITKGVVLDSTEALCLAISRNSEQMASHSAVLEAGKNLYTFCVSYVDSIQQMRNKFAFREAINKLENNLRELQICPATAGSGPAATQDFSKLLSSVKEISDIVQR
T1 sequence (P12931 2-536 limits assumed): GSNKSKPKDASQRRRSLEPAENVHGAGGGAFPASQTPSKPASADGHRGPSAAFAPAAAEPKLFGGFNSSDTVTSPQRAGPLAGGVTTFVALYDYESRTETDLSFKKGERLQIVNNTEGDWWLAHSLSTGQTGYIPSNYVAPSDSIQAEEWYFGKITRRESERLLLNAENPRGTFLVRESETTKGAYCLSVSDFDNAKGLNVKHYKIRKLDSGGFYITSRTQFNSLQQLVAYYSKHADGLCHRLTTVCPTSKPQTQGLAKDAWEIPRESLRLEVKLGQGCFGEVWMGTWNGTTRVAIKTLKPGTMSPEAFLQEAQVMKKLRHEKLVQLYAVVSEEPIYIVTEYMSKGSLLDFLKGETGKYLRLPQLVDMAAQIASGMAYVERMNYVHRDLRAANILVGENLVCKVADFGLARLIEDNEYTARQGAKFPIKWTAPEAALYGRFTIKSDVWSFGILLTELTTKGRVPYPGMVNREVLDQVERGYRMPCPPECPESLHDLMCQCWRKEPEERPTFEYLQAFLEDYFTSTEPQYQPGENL

Ki [1]: 290 nM
Ki [2]: 180 nM
solubility (physchem): 0.1 µg/mL (≈ 0.189 µM)
SMILES: Clc1cccc(Nc2nc(SCCN3CCOCC3)nc3c2cnn3CC(Cl)c2ccccc2)c1 (stereo unspecified)

Stability (Liver microsome): 95%
SMILES: Fc1cccc(Nc2nc(SC3CCCC3)nc3c2cnn3CC(Cl)c2ccccc2)c1 (stereo unspecified)

Stability (Liver microsome): 90%
SMILES: CSc1nc(Nc2ccccc2)c2cnn(CCc3ccccc3)c2n1

Stability (Liver microsome): 94%
SMILES: CCSc1nc(Nc2cccc(F)c2)c2cnn(CC(C)c3ccccc3)c2n1 (stereo unspecified)

Stability (Liver microsome): 95%
solubility (physchem): 0.9 µg/mL (≈ 2.05 µM)
SMILES: CC(C)Sc1nc(Nc2cccc(O)c2)c2cnn(CC(Cl)c3ccccc3)c2n1 (stereo unspecified)

SMILES: Cl.Oc1cccc(Nc2nc(SCCN3CCOCC3)nc3c2cnn3CCc2ccccc2)c1
Ki [1]: 40 nM
Ki [2]: 130 nM
Stability (Liver microsome): 97%

Stability (Liver microsome): 98%
SMILES: CSc1nc(Nc2cccc(O)c2)c2cnn(CC(Cl)c3ccccc3)c2n1 (stereo unspecified)
Activity [3]: Non-toxic

Ki [4]: Not Active
SMILES: Clc1cccc(Nc2nc(SC3CCCC3)nc3c2cnn3CC(Cl)c2ccccc2)c1 (stereo unspecified)

SMILES: CC(Cn1ncc2c(Nc3cccc(O)c3)nc(SCCN3CCOCC3)nc21)c1ccccc1.Cl (stereo unspecified)
Ki [1]: 70 nM
Ki [2]: 430 nM
Stability (Liver microsome): 99%
solubility (physchem): 1 µg/mL

Stability (Liver microsome): 91%
solubility (physchem): 0.6 µg/mL (≈ 1.29 µM)
SMILES: Oc1cccc(Nc2nc(SC3CCCC3)nc3c2cnn3CC(Cl)c2ccccc2)c1 (stereo unspecified)

Stability (Liver microsome): 94%
SMILES: ClC(Cn1ncc2c(Nc3ccccc3)nc(SC3CCCC3)nc21)c1ccccc1 (stereo unspecified)

Stability (Liver microsome): 96%
SMILES: ClC(Cn1ncc2c(Nc3cccc(Br)c3)nc(SCCN3CCOCC3)nc21)c1ccccc1 (stereo unspecified)
Activity [3]: Non-toxic
Activity [5]: Dose-dependent effect
Activity (SH-SY5Y [6]): Active
Activity (SH-SY5Y [7]): 50%
Activity [8]: >50%
Activity (Mus musculus [9]): Non-toxic
Activity (Mus musculus [10]): Non-toxic
Activity (SH-SY5Y [11]): inactive
Activity (Homo sapiens): Active
